pIC50: −log10 of the molar value.
Tests used:
IKKε = IKKε (Homo sapiens (Human), UniProt Q14164); assay: Lanthascreen TR-FRET kinase inhibition assay, IKKε; format: biochemical; conditions: 20 μM ATP (apparent Km), 2 nM kinase, 1 h
Method in brief: (§1)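 TR-FRET: terbium phosphospecific antibody detects phosphorylation of 400 nM fluorescein-IkBα peptide, 20 μM ATP, 20 °C, HEPES pH 7.5 with 3% DMSO. IKKε at 2 nM, 1 h reaction; TBK1 at 8 nM, 2.5 h reaction; started by kinase addition.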

TBK1 = TBK1 (Homo sapiens (Human), UniProt Q9UHD2); assay: Lanthascreen TR-FRET kinase inhibition assay, TBK1; format: biochemical; conditions: 20 μM ATP (apparent Km), 8 nM kinase, 2.5 h
TBK1, sequence (Q9UHD2 whole entry): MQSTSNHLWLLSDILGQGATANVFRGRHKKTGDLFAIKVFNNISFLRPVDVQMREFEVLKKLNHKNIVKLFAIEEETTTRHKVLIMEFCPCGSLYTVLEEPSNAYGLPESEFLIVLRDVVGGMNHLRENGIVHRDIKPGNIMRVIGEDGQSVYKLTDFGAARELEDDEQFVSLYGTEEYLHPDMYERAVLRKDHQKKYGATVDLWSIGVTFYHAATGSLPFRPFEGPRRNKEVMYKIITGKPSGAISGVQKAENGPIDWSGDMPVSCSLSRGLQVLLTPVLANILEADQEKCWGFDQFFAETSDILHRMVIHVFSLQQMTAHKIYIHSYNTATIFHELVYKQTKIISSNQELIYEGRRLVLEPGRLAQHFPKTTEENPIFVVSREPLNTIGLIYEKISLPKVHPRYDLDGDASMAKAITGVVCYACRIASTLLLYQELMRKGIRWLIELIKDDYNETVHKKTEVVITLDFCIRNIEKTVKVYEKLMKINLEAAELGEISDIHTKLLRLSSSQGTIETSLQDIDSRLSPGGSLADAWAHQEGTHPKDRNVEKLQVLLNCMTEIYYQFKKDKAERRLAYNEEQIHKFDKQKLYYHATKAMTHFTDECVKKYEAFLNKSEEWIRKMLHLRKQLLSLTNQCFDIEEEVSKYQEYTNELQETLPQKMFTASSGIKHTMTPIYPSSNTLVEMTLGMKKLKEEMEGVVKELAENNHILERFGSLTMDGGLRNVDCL
Method in brief: as §1

IKKε, sequence (Q14164 whole entry): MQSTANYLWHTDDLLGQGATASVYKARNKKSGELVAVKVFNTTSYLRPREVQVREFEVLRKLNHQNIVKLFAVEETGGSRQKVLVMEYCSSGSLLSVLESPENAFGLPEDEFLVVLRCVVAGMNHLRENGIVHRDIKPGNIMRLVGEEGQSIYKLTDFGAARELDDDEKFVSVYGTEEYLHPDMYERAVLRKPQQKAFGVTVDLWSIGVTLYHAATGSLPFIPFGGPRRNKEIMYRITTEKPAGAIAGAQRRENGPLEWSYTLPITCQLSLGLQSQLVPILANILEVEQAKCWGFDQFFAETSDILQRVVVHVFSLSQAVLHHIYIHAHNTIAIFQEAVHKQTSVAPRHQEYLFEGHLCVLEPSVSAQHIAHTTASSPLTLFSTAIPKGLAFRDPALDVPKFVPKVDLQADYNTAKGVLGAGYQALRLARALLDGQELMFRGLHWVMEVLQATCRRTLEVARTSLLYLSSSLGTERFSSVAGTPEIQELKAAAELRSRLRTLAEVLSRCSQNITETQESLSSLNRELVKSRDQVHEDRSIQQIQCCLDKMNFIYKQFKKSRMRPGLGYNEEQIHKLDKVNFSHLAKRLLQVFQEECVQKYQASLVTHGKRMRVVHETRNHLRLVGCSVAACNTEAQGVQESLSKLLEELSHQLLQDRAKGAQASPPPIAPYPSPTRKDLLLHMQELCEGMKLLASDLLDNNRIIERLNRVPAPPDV

| pIC50 (IKKε) | pIC50 (TBK1) | Structure (SMILES) |
| --- | --- | --- |
| > 7.00 | > 7.52 | N#Cc1nc(-c2ccnc(Nc3ccc(OCCN4CC[C@H](F)C4)nc3)n2)ccc1N1CC[C@H](F)C1 [DMX-147, 3-((S)-3-Fluoro-pyrrolidin-1-yl)-6-(2-{6-[2-((S)-3-fluoro-pyrrolidin-1-yl)-ethoxy]-pyridin-3-ylamino}-pyrimidin-4-yl)-pyridine-2-carbonitrile] |
| > 6.00 | > 7.00 | COCCNc1cc(Nc2ncc(F)c(-c3cnc(NC4CC4)c(C#N)c3)n2)ccn1 [DMX-125, 2-Cyclopropylamino-5-{5-fluoro-2-[2-(2-methoxy-ethylamino)-pyridin-4-ylamino]-pyrimidin-4-yl}-nicotinonitrile] |
| > 7.00 | > 7.00 | N#Cc1nc(-c2ccnc(Nc3ccc(OCCN4CC[C@H](F)C4)nc3)n2)ccc1N1CC[C@H](O)C1 [DMX-148, 6-(2-{6-[2-((S)-3-Fluoro-pyrrolidin-1-yl)-ethoxy]-pyridin-3-ylamino}-pyrimidin-4-yl)-3-((S)-3-hydroxy-pyrrolidin-1-yl)-pyridine-2-carbonitile] |
| > 7.52 | > 7.82 | N#Cc1cc(-c2ccnc(Nc3ccnc(CN4CCOCC4)c3)n2)cnc1N1CC[C@H](F)C1 [DMX-99, 2-((S)-3-Fluoro-pyrrolidin-1-yl)-5-[2-(2-morpholin-4-ylmethyl-pyridin-4-ylamino)-pyrimidin-4-yl]-nicotinonitrile] |
| > 7.52 | > 7.00 | N#Cc1cc(-c2ccnc(Nc3cnc4c(c3)CNC4)n2)cnc1N1CC[C@H](F)C1 [DMX-109, 5-[2-(6,7-Dihydro-5H-pyrrolo[3,4-b]pyridin-3-ylamino)-pyrimidin-4-yl]-2-((S)-3-fluoro-pyrrolidin-1-yl)-nicotinonitrile] |
| > 6.00 | > 6.00 | N#Cc1cc(-c2ccnc(Nc3ccc(CN4CCOCC4)nc3)n2)cnc1N1CCNC(=O)CC1 [DMX-133, 5-[2-(6-Morpholin-4-yImethyl-pyridin-3-ylamino)-pyrimidin-4-yl]-2-(5-oxo-[1,4]diazepan-1-yl)-nicotinonitrile] |
| > 7.00 | > 7.00 | CN1CCC(Nc2ccc(Nc3nccc(-c4cnc(N5CC[C@H](O)C5)c(C#N)c4)n3)cn2)CC1 [DMX-13, 2-((S)-3-Hydroxy-pyrrolidin-1-yl)-5-{2-[6-(1-methyl-piperidin-4-ylamino)-pyridin-3-ylamino]-pyrimidin-4-yl}-nicotinonitrile] |
| > 7.00 | > 7.00 | CN(c1ncc(-c2ccnc(Nc3ccc(CN4CCOCC4)nc3)n2)cc1C#N)C1CCOC1 (stereo not shown) [DMX-163, 2-[Methyl-(tetrahydro-furan-3-yl)-amino]-5-[2-(6-morpholin-4-ylmethyl-pyridin-3-ylamino)-pyrimidin-4-yl]-nicotinonitrile] |
| > 7.00 | > 6.00 | COCC1CCN(c2ncc(-c3ccnc(Nc4ccc(CN5CCOCC5)nc4)n3)cc2C#N)C1 (stereo not shown) [DMX-160, 2-(3-Methoxymethyl-pyrrolidin-1-yl)-5-[2-(6-morpholin-4-ylmethyl-pyridin-3-ylamino)-pyrimidin-4-yl]-nicotinonitrile] |
| > 7.00 | > 7.52 | CN1CCC(NC(=O)c2cccc(Nc3nccc(-c4cnc(N5CC[C@H](F)C5)c(C#N)c4)n3)c2)CC1 [DMX-1, 3-{4-[5-Cyano-6-((S)-3-fluoro-pyrrolidin-1-yl)-pyridin-3-yl]-pyrimidin-2-ylamino}-N-(1-methyl-piperidin-4-yl)-benzamide] |
| > 7.52 | > 7.52 | N#Cc1cc(-c2ccnc(Nc3ccc(NC4CCNCC4)nc3)n2)cnc1N1CC[C@H](F)C1 [DMX-10, 2-((S)-3-Fluoro-pyrrolidin-1-yl)-5-{2-[6-(piperidin-4-ylamino)-pyridin-3-ylamino]-pyrimidin-4-yl}-nicotinonitrile] |
| > 6.00 | > 7.00 | CN1CCC(Nc2ccc(Nc3nccc(-c4cnc(NCCO)c(C#N)c4)n3)cn2)CC1 [DMX-120, 2-(2-Hydroxy-ethylamino)-5-{2-[6-(1-methyl-piperidin-4-ylamino)-pyridin-3-ylamino]-pyrimidin-4-yl}-nicotinonitrile] |
| > 7.52 | > 7.52 | N#Cc1cc(-c2ccnc(Nc3cnn(CCO)c3)n2)cnc1N1CCCC1 [DMX-36, 5-{2-[1-(2-Hydroxy-ethyl)-1H-pyrazol-4-ylamino]-pyrimidin-4-yl}-2-pyrrolidin-1-yl-nicotinonitrile] |
| > 6.00 | > 6.00 | N#Cc1cc(-c2ccnc(Nc3cccc(=O)[nH]3)n2)cnc1N1CC[C@H](F)C1 [DMX-73, 2-((S)-3-Fluoro-pyrrolidin-1-yl)-5-[2-(6-oxo-1,6-dihydro-pyridin-2-ylamino)-pyrimidin-4-yl]-nicotinonitrile] |
| > 7.52 | > 7.52 | N#Cc1cc(-c2ccnc(Nc3ccc(NC(=O)CN4CCC(O)CC4)nc3)n2)cnc1N1CC[C@H](F)C1 [DMX-29, N-(5-{4-[5-Cyano-6-((S)-3-fluoro-pyrrolidin-1-yl)-pyridin-3-yl]-pyrimidin-2-ylamino}-pyridin-2-yl)-2-(4-hydroxy-piperidin-1-yl)-acetamide] |
| > 7.52 | > 7.52 | CN(CCO)c1cc(Nc2nccc(-c3cnc(N4CC[C@H](F)C4)c(C#N)c3)n2)ccn1 [DMX-101, 2-((S)-3-Fluoro-pyrrolidin-1-yl)-5-(2-{2-[(2-hydroxy-ethyl)-methyl-amino]-pyridin-4-ylamino}-pyrimidin-4-yl)-nicotinonitrile] |
| > 6.00 | > 6.00 | COCCNc1ncc(-c2ccnc(Nc3ccc(NC4CCN(C)CC4)nc3)n2)cc1C#N [DMX-118, 2-(2-Methoxy-ethylamino)-5-{2-[6-(1-methyl-piperidin-4-ylamino)-pyridin-3-ylamino]-pyrimidin-4-yl}-nicotinonitrile] |
| > 7.00 | > 7.82 | N#Cc1cc(-c2ccnc(Nc3cnn(C[C@H](O)CO)c3)n2)cnc1N1CCCC1 [DMX-38, 5-{2-[1-((S)-2,3-Dihydroxy-propyl)-1H-pyrazol-4-ylamino]-pyrimidin-4-yl}-2-pyrrolidin-1-yl-nicotinonitrile] |
| > 7.52 | > 7.52 | N#Cc1cc(-c2ccnc(Nc3cnn(CCO)c3)n2)cnc1N1CC[C@H](F)C1 [DMX-51, 2-((S)-3-Fluoro-pyrrolidin-1-yl)-5-{2-[1-(2-hydroxy-ethyl)-1H-pyrazol-4-ylamino]-pyrimidin-4-yl}-nicotinonitrile] |
| > 7.82 | > 7.82 | N#Cc1nc(-c2ccnc(Nc3ccc(N4CCOCC4)cc3)n2)ccc1N1CCCC1 [DMX-58, 6-[2-(4-Morpholin-4-yl-phenylamino)-pyrimidin-4-yl]-3-pyrrolidin-1-yl-pyridine-2-carbonitrile] |
| > 6.00 | > 7.00 | Cn1cc(Nc2nccc(-c3cnc(N4CCC[C@H]4C#N)c(C#N)c3)n2)cn1 [DMX-42, 2-((S)-2-Cyano-pyrrolidin-1-yl)-5-[2-(1 methyl-1H-pyrazol-4-ylamino)-pyrimidin-4-yl]-nicotinonitrile] |
| > 7.00 | > 7.00 | N#Cc1cc(-c2ccnc(Nc3ccc(OCCN4CC[C@H](F)C4)nc3)n2)cnc1N1CC[C@H](F)C1 [DMX-70, 2-((S)-3-Fluoro-pyrrolidin-1-yl)-5-(2-{6-[2-((S)-3-fluoro-pyrrolidin-1-yl)-ethoxy]-pyridin-3-ylamino}-pyrimidin-4-yl)-nicotinonitrile] |
| > 7.82 | > 7.82 | N#Cc1nc(-c2ccnc(Nc3ccc(NC(=O)CN4CCOCC4)nc3)n2)ccc1N1CC[C@H](F)C1 [DMX-142] |

From patent US9433622B2, “Pyrimidine compounds useful in the treatment of diseases mediated by IKKE and/or TBK1 mechanisms” (DOMAINEX LIMITED, priority 2013, dated 2016)
